Article PMC10120310 (Cell Insight, 2022)

Assays:
[1] = tested on: oseltamivir-resistant strain (H1N1, H274Y); format: cell-based, H1N1 influenza virus (H274Y)
[2] = tested on: oseltamivir-resistant strain (H1N1, H274Y); format: cell-based, H1N1 influenza virus (H274Y); remark: listed apart in the source

CCOC(=O)C1=C[C@@H](OC(CC)CC)[C@H](NC(C)=O)[C@@H](N)C1 [OSP, oseltamivir phosphate]
viral NP protein level of the resistant strain [1]: no antiviral activity | viral NP mRNA level of the resistant strain [2]: no antiviral activity
